Data published in patent US11497759B2, “Repurposcins: targeted inhibitors of mitochondrial biogenesis for eradicating cancer stem cells” (LUNELLA BIOTECH, INC., priority 2017, dated 2022).
pIC50: −log10 of the molar value.

System: MCF-7 breast CSCs
Test: Inhibition of mammosphere-forming activity of MCF-7 breast CSCs
Assay type: cell-based, human
Conditions: treated for 5 days in mammosphere media, read-out: IC-50 for blocking CSC propagation (mammosphere-forming activity)
From the text: The black bars show 2,4-dichlorobenzyl-TPP; the inclined bars show 1-naphthylmethyl-TPP; the dotted bars show 3-methylbenzyl-TPP; the unshaded bars show 2-chlorobenzyl-TPP; and the horizontal lined bars show 2-butene-1,4-bis-TPP. […] Data are represented as mean+/−SEM.

- pIC50: > 6.30
Compound: C(=CC[P+](c1ccccc1)(c1ccccc1)c1ccccc1)C[P+](c1ccccc1)(c1ccccc1)c1ccccc1 [2-butene-1,4-bis-TPP]
